Our source for the solubility in water and T1 relaxation values is US20100233096A1, “METHOD TO PRODUCE HYPERPOLARISED CARBOXYLATES AND SULPHONATES” (priority 2006, published 2010).

The conditions of data set [1]: compared with NH4-acetate or Ca-acetate; solubility data available in the literature; cited from earlier work.
Data set [2] can be described thus: T1 relaxation in human full blood. Format: physicochemical. The settings on record: human full blood at 37° C. The source says: The amount of alanine, bicarbonate and lactate is dependent on the metabolic status of the tissue under investigation.

With `CC(=O)[O-].[Cs+]` [Cs-acetate], the solubility in water result in data set [1] is “higher solubility in water”.
Take `CC(=O)[13C](=O)O` [^13C-pyruvate]: in data set [2], the T1 relaxation result is listed as “about 42 s”.
